From patent US20070117842A1, “Polymorph of 4-[3-chloro-4-(cyclopropylaminocarbonyl)aminophenoxy]-7-methoxy-6- quinolinecarboxamide and a process for the preparation of the same” (priority 2003, published 2007)
Converted amounts (≈) assume the structure as drawn.

Assays:
Format in all cases: physicochemical
[1] = Hygroscopicity test by a desiccator method; conditions: for water content: Karl Fischer method
Method: (Hygroscopicity Test by a Desiccator Method) The hygroscopicities of the crystals obtained in Examples 1d and 2d were evaluated by a desiccator method. […] Weighing bottles (in opened caps) were used for containers, and MIR-552 (Sanyo) was used for a storage apparatus. [table] The powder X-ray diffraction analysis was carried out under the following conditions. The water content was measured (by the Karl Fischer method) by using the following apparatus and reagents.

[2] = Hygroscopicity test by microbalance method; conditions: 25° C.
Method: (Hygroscopicity Test by Microbalance Method)
The higroscopicities of the crystals obtained in Examples 1d and 2d were evaluated by microbalance method. An apparatus and conditions employed were as follows.
Apparatus: Integrated microbalance system MB 300W (VTI Co.)
Relative humidity step: 5 to 95 by 5
Equilibrium Criteria: 0.0050 wt % (5 minutes)
Maximum equilibrium time: 120 minutes
The results of measuring the higroscopicities of the crystals obtained in Examples 1d and 2d by microbalance method are shown in FIGS. 13 and 14, respectively. As is seen from the results shown in these figures, within the range of 5-95% of relative humidity, the polymorph (A) gave a weight change of 1% and the polymorph (B) gave that of 1.5%.

[3] = Solid stability test (1 month storage; appearance, water content, HPLC purity and residual ratio, powder X-ray diffraction); conditions: for impurity / remaining percent: HPLC; for water content: Karl Fischer method
Method: (Solid Stability Test) The solid stabilities of the crystal obtained in Examples 1d and 2d were evaluated. […] The water content measurement and the powder X-ray diffraction measurement were carried out by the same method as described in the hygroscopicity test by the dessiccator method. Further, the purity test and the residual ratio (percent) measurement by HPLC were carried out by the same method as described above, except for the condition that the column temperature was 35° C. In this connection, the residual ratio (percent) (measurement by HPLC) was defined as stated bellow by using the crystal stored under the condition C as the standard and its solution as the standard solution. Remaining percent (%)=[(Peak area of the sample solution)×(Weighed amount of the standard: in terms of a dehydrate (mg))]×100/[(Peak area of the standard solution)×(Weighed amount of the sample: in terms of a dehydrate (mg))] [table]

[4] = Solubility test (pH 3, Britton Robinson buffer); conditions: for pH of the filtrate: solubility test
Method: (Solubility Test) The solubilities (pH 3) of the crystals obtained in Examples 1d and 2d were evaluated by the following method. About 3 mg of the crystals obtained in Examples 1d and 2d were weighed and each of them was put in a 10 mL screw-capped transparent test tube. 5 mL of a buffer solution (Britton Robinson buffer, pH 3.091, ionic strength I=0.3) was added to each of the test tubes to prepare the test solutions. The test tubes were wrapped with aluminum foil to shield from light, and shaken by a shaker (MS-1 Iuchi Seieido) in the following conditions. Temperature: 25-26° C. (a temperature in a laboratory) Shaking frequency: 150 times/minute Shaking time: 3 hours and 5 hours Respective sample solutions after shaking were filtered ([…], Sample LCR13-LG, Millipore Co.), and each 1 mL of the initial filtrate was discarded. Each of accurately pipetted 1 mL of the filtrates was put in a 10 mL test tube, to which accurately pipetted 1 mL of a mixed solution of water/acetonitrile (1:1 (v/v)) was added to prepare a solution for the HPLC analysis. The HPLC conditions were as follows. A standard solution for the HPLC analysis were prepared as follows. About 10 mg of the crystals obtained in Example 2d was accurately weighed, to which a mixed solution of water/acetonitrile/ammonium acetate (100:100:0.1, v/v/w) was added to give accurate 100 mL to prepare a stock standard solution. Accurately pipetted 5 mL of the stock control solution was added with a mixed solution of water/acetonitrile/ammonium acetate (100:100:0.1, v/v/w) to give accurate 25 mL to prepare the standard solution for the HPLC analysis. Regarding a blank solution, a mixed solution of water/acetonitrile/ammonium acetate (100:100:0.1, v/v/w) was used. The standard solution and respective filtrates were analyzed by HPLC to measure concentrations (mg/mL) of 4-(3-chloro-4-(cyclopropylaminocarbonyl)aminophenoxy)-7-methoxy-6-quinolinecarboxamide in respective filtrates according to the following equation. Concentration (mg/mL)=(Concentration in the standard solution, mg/mL)×[(Peak area in each filtrate)×2/(Peak area in the standard solution)] As is evident from the results, there was no significant difference in the solubility at pH 3 between the polymorphs (A) and (B).

[5] = Crystal transition between polymorphs in heated suspension; conditions: 60° C., 3 hours, listed as polymorph (A)
Method: These suspensions were filtered to collect 4-(3-chloro-4-(cyclopropylaminocarbonyl)aminophenoxy)-7-methoxy-6-quinolinecarboxamide (184 to 266 mg).
These suspensions were filtered to collect 4-(3-chloro-4-(cyclopropylaminocarbonyl)aminophenoxy)-7-methoxy-6-quinolinecarboxamide (141 to 256 mg).

[6] = condition A: 25° C., 75% relative humidity, stored 1 week
[7] = condition B: 25° C., 93% relative humidity, stored 1 week
[8] = desiccator method, 25° C., 75% or 93% relative humidity, 1 week
[9] = condition C: −20° C., brown screw vial, closed, 1 month
[10] = condition D: 25° C., 1000lx, shading with aluminum foil, quartz tube, closed, 1 month
[11] = condition E: 25° C., 1000lx, quartz tube, closed, 1 month
[12] = condition F: 40° C., 75% RH, brown screw vial, open, 1 month
[13] = condition G: 60° C., brown screw vial, closed, 1 month

Question: Which results are given for `COc1cc2nccc(Oc3ccc(NC(=O)NC4CC4)c(Cl)c3)c2cc1C(N)=O` [Example 1d, 4-(3-chloro-4-(cyclopropylaminocarbonyl)aminophenoxy)-7-methoxy-6-quinolinecarboxamide]?
Answer: appearance [1, 6]: light brown; water content [1, 6]: 1.0 wt %; appearance [1, 7]: light brown; water content [1, 7]: 1.2 wt %; crystal transition [1, 8]: no perceivable crystal transition; hygroscopicity [1, 8]: no perceivable hygroscopicitiy; appearance ([1]; prior to storage): light brown; water content ([1]; prior to storage): 1.0 wt %; hygroscopicity ([2]; microbalance method, 5-95% relative humidity): no perceivable hygroscopisity; weight change ([2]; within the range of 5-95% of relative humidity, listed as polymorph (A)): 1%; appearance [3, 9]: light brown; impurity [3, 9]: 2.66%; remaining percent ([3]; condition C: −20° C., brown screw vial, closed, 1 month, condition C is the standard): (100) %; water content [3, 9]: 1.0 wt %; appearance [3, 10]: light brown; impurity [3, 10]: 2.67%; remaining percent ([3]; condition D: 25° C., 1000lx, shading with aluminum foil, quartz tube, closed, 1 month, vs condition C standard): 103.3%; water content [3, 10]: 0.7 wt %; appearance [3, 11]: light brown; impurity [3, 11]: 2.68%; remaining percent ([3]; condition E: 25° C., 1000lx, quartz tube, closed, 1 month, vs condition C standard): 104.3%; water content [3, 11]: 0.8 wt %; appearance [3, 12]: light brown; impurity [3, 12]: 2.65%; remaining percent ([3]; condition F: 40° C., 75% RH, brown screw vial, open, 1 month, vs condition C standard): 102.3%; water content [3, 12]: 1.2 wt %; appearance [3, 13]: light brown; impurity [3, 13]: 2.65%; remaining percent ([3]; condition G: 60° C., brown screw vial, closed, 1 month, vs condition C standard): 104.4%; water content [3, 13]: 0.5 wt %; appearance ([3]; prior to storage): light brown; impurity ([3]; prior to storage): 2.71%; water content ([3]; prior to storage): 1.0 wt %; change on storage (solid stability) ([3]; stored for 1 month, any storage conditions): no change was observed; solubility at 3 h ([4]; Britton Robinson buffer, 25 °C, pH 3, aqueous buffer, thermodynamic from solid, pH 3 Britton Robinson buffer, 25-26° C., shaking time 3 hours, read-out: solubility (concentration in filtrate)): 77 µg/mL (≈ 180 µM); solubility at 5 h ([4]; Britton Robinson buffer, 25 °C, pH 3, aqueous buffer, thermodynamic from solid, pH 3 Britton Robinson buffer, 25-26° C., shaking time 5 hours, read-out: solubility (concentration in filtrate)): 71 µg/mL (≈ 166 µM); pH of the filtrate ([4]; shaking time 3 hours): 3.123; pH of the filtrate ([4]; shaking time 5 hours): 3.107; crystal form after suspension ([5]; 300 mg in DMSO (1.7 mL) and 33% (v/v) acetone-water (0.17, 0.34, 0.51 or 0.85 mL)): crystal transition to the polymorph (B) occurred in every case; dissolution in DMSO ([5]; 300 mg in DMSO (1.7 mL), without 33% acetone-water): most of the polymorph (A) dissolved
